Tests used:
[1] = target: Sodium-dependent noradrenaline transporter (Homo sapiens) (UniProt P23975); assay: Binding affinity at NET
[2] = target: Sodium-dependent serotonin transporter (Homo sapiens) (UniProt P31645); assay: Binding affinity at SERT
Sequence of Sodium-dependent serotonin transporter (Homo sapiens) (P31645 whole entry, looked up): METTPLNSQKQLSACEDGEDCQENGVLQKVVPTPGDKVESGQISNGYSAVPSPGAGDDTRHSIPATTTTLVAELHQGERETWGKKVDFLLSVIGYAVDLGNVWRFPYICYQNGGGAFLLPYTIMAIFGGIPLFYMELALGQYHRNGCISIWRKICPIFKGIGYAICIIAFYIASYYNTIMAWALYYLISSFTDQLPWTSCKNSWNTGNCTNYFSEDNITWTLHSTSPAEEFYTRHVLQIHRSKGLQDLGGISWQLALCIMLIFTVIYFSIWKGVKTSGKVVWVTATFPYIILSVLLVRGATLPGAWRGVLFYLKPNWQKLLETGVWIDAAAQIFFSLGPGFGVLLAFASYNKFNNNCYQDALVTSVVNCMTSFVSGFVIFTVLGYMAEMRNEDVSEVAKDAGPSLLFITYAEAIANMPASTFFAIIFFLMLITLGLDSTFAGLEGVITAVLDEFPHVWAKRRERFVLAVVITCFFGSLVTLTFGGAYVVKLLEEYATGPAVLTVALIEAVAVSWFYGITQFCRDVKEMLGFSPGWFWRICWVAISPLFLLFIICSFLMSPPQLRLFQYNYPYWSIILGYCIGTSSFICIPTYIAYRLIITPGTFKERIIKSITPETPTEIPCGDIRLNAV

Sequence of Sodium-dependent noradrenaline transporter (Homo sapiens) (P23975 whole entry): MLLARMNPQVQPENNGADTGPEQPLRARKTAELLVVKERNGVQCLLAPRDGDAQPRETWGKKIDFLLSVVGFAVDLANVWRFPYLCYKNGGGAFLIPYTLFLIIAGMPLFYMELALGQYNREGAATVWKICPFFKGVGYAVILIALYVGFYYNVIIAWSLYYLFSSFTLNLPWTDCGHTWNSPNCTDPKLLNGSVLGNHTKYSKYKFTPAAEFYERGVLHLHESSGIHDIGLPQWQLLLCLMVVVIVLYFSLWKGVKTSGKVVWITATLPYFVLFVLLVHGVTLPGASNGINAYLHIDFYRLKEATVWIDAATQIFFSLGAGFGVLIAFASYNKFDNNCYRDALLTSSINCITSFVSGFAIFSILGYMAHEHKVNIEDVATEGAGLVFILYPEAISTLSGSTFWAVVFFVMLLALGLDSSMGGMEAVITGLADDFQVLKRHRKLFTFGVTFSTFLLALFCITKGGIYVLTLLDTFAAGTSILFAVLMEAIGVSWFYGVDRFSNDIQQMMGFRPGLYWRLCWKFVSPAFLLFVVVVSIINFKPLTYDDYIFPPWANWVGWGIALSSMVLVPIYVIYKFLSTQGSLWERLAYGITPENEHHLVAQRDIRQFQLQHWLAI

SMILES | Activity [1] | Activity [2]
Fc1cccc(F)c1O[C@@H](Cc1ccccc1)[C@@H]1CNCCO1 | 66 nM | 912 nM
CCOc1ccccc1O[C@@H](c1ccc(CC)cn1)[C@@H]1CNCCO1 | 49 nM | 8210 nM
Fc1ccc(O[C@@H](c2ccccc2)[C@@H]2CNCCO2)c(F)c1 | 16 nM | 617 nM
Fc1cccc(F)c1O[C@H](C1=CCCC1)[C@@H]1CNCCO1 | 2570 nM | 2530 nM
CCOc1ccccc1O[C@@H](c1cccnc1)[C@@H]1CNCCO1 | 114 nM | > 10000 nM
CCOc1ccccc1O[C@@H](c1ccccn1)[C@@H]1CNCCO1 | 7 nM | 6910 nM
Cc1coc([C@@H](Oc2c(F)cccc2F)[C@@H]2CNCCO2)n1 | 6940 nM | > 10000 nM
Fc1cccc(F)c1O[C@@H](C1=CCCC1)[C@@H]1CNCCO1 | 20 nM | 3700 nM
CCOc1cccc(F)c1O[C@@H](c1ccccc1)[C@@H]1CNCCO1 | 4 nM | 2570 nM
Cc1coc([C@H](Oc2c(F)cccc2F)[C@@H]2CNCCO2)n1 (stereo in doubt; form 1) | 18 nM | > 4500 nM
Fc1ccc(O[C@@H](c2ccccc2)[C@@H]2CNCCO2)cc1 | 21 nM | 1620 nM
Fc1cccc(F)c1O[C@@H](c1nccs1)[C@@H]1CNCCO1 | 19 nM | > 10000 nM
Fc1cccc(F)c1O[C@@H](c1cccc2c1OCC2)[C@@H]1CNCCO1 | 13 nM | 445 nM
COc1cccc(F)c1O[C@@H](c1ccccc1)[C@@H]1CNCCO1 | 2 nM | > 3500 nM
c1ccc([C@H](Oc2ccccc2C2CC2)[C@H]2CNCCO2)cc1 | 35 nM | 75 nM
Fc1cccc(F)c1O[C@@H](c1ccccn1)[C@@H]1CNCCO1 | 6 nM | 8980 nM
N#Cc1ccccc1O[C@@H](c1ccccc1)[C@@H]1CNCCO1 | 18 nM | > 10000 nM

Second part, the molecule after the results:

Activity [1] | Activity [2] | SMILES
7 nM | 6390 nM | Fc1ccccc1O[C@@H](c1ccccc1)[C@@H]1CNCCO1
28 nM | 676 nM | CCOc1ccccc1O[C@@H](c1cccc(OC)n1)[C@@H]1CNCCO1
1360 nM | > 10000 nM | CS(=O)(=O)c1ccccc1O[C@@H](c1ccccc1)[C@@H]1CNCCO1
7 nM | 1210 nM | Fc1cccc(F)c1O[C@@H](c1ccccc1)[C@@H]1CNCCO1
11 nM | 13 nM | Fc1cccc(OC(c2ccccc2)C2CNCCO2)c1 (stereo not drawn)
3 nM | 477 nM | Brc1ccccc1O[C@@H](c1ccccc1)[C@@H]1CNCCO1
9 nM | > 10000 nM | Fc1cccc(F)c1O[C@@H](c1ncco1)[C@@H]1CNCCO1
27 nM | 3680 nM | CCOc1ccccc1O[C@@H](c1ncccc1C)[C@@H]1CNCCO1
17 nM | 105 nM | Brc1ccccc1O[C@@H](c1ccccc1)[C@H]1CNCCO1
2 nM | 482 nM | c1ccc([C@H](Oc2ccccc2C2CC2)[C@@H]2CNCCO2)cc1
457 nM | > 8400 nM | Cc1ccc(C(C)C)c(O[C@@H](c2ccccn2)[C@@H]2CNCCO2)c1
19 nM | > 10000 nM | Cc1coc([C@H](Oc2c(F)cccc2F)[C@@H]2CNCCO2)n1 (stereo in doubt; form 2)

From ChEMBL document CHEMBL1142443, “Design and synthesis of reboxetine analogs morpholine derivatives as selective norepinephrine reuptake inhibitors” (Bioorg Med Chem Lett, 2008)
